Experimental findings from PubChem BioAssay (NCI) are described below.

Among the test systems are MDA-MB-231 breast; 786-0 renal; SK-MEL-2 melanoma; SNB-19 CNS; RPMI-8226 leukemia; SK-MEL-28 melanoma; HL-60(TB) leukemia; NCI-H460 lung; RXF 393 renal; DU-145 prostate.
Holding throughout (assay): NCI-60 cell line screen, 48 h

Structures are written as SMILES.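 Protocol summary: plate cells (96-well), add compound at 5 concentrations, incubate 48 h, interpolate endpoints linearly. GI50 is the concentration that inhibits growth by half. At the TGI there is no net growth.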 Some results are limits rather than exact numbers.

Regarding `O=C(O)C1C2C=CC(C2)C1C(=O)O` (stereo unspecified), the GI50 with MDA-MB-231 breast, in the test with 786-0 renal, in the test with SK-MEL-2 melanoma, with SNB-19 CNS, with RPMI-8226 leukemia and with SK-MEL-28 melanoma was over 100 µM in each case. For the same molecule, the GI50 with HL-60(TB) leukemia, in the test with NCI-H460 lung, in the test with RXF 393 renal and in the test with DU-145 prostate was over 100 µM in each case. Moreover, the TGI in the test on MDA-MB-231 breast, in the test on 786-0 renal, in the test with SK-MEL-2 melanoma, in the test on SNB-19 CNS, in the test with RPMI-8226 leukemia and in the test with SK-MEL-28 melanoma was over 100 µM throughout. The TGI in the test on HL-60(TB) leukemia, in the test with NCI-H460 lung, in the test with RXF 393 renal and in the test on DU-145 prostate was over 100 µM each time.

In the case of `CN1CC[C@]2(c3cccc(O)c3)CC(=O)/C(=C/c3ccccc3)[C@H]1C2`, the TGI with MDA-MB-231 breast was 8.08 µM; with 786-0 renal it was 10.1 µM; with SK-MEL-2 melanoma, 12.6 µM; in the test with SNB-19 CNS, 17.4 µM; in the test with RPMI-8226 leukemia it was over 22 µM; with SK-MEL-28 melanoma, 12.8 µM. In addition, the TGI in the test on HL-60(TB) leukemia was 5.45 µM; in the test with NCI-H460 lung, 6.32 µM; with RXF 393 renal, 8.03 µM; in the test on DU-145 prostate it was 11.3 µM. The GI50 in the test with 786-0 renal was 3.21 µM; in the test on SK-MEL-2 melanoma it was 3.28 µM; in the test with SNB-19 CNS, 4.75 µM; with RPMI-8226 leukemia it was 2.1 µM; with RXF 393 renal, 2.5 µM; in the test on DU-145 prostate, 3.14 µM.

With `CC[C@@H](C(=O)[C@H](C)[C@H](O)[C@@H](C)[C@H]1O[C@H]([C@@H](CC)C(=O)O)CC[C@H]1C)C1O[C@]2(C=C[C@@H](O)[C@]3(CC[C@@](C)([C@H]4CC[C@](O)(CC)[C@H](C)O4)O3)O2)[C@H](C)C[C@@H]1C` (stereo partly specified), the GI50 is 0.586 µM in the test with MDA-MB-231 breast; 1.26 µM in the test with 786-0 renal; 1.27 µM with SK-MEL-2 melanoma; 0.204 µM in the test on SNB-19 CNS; 0.171 µM in the test with RPMI-8226 leukemia; 0.84 µM in the test on SK-MEL-28 melanoma. The GI50 was 0.06 µM with HL-60(TB) leukemia, 0.4 µM in the test on NCI-H460 lung, 0.0621 µM in the test on RXF 393 renal and 1.06 µM in the test with DU-145 prostate. The TGI in the test with MDA-MB-231 breast is 6.71 µM; in the test with 786-0 renal, 21.2 µM; with SK-MEL-2 melanoma it was 4.5 µM; with SNB-19 CNS, 4.25 µM; with RPMI-8226 leukemia, 3.07 µM; in the test on SK-MEL-28 melanoma, 2.09 µM. In addition, the TGI with HL-60(TB) leukemia was 0.506 µM; in the test with NCI-H460 lung, 10.3 µM; in the test with RXF 393 renal it was 1.47 µM; in the test with DU-145 prostate, 29.3 µM.

For `NS(=O)(=O)c1ccc(NCc2cnc3ccccc3n2)cc1`, the TGI with MDA-MB-231 breast, in the test with 786-0 renal, in the test with SK-MEL-2 melanoma, with SNB-19 CNS, in the test on RPMI-8226 leukemia and with SK-MEL-28 melanoma was over 100 µM in each case. Further, the TGI in the test on HL-60(TB) leukemia, in the test on NCI-H460 lung, in the test with RXF 393 renal and in the test on DU-145 prostate was over 100 µM throughout.

In the case of `O=[N+]([O-])c1ccc(Sc2nc(Cl)nc(NC3CCCC3)n2)cc1`, the GI50 in the test on MDA-MB-231 breast is over 10 µM; in the test on 786-0 renal, over 10 µM; in the test with SK-MEL-2 melanoma, over 10 µM; in the test with SNB-19 CNS, over 10 µM; with RPMI-8226 leukemia it was over 10 µM; in the test with SK-MEL-28 melanoma it was 7 µM. For the same molecule, the GI50 was over 10 µM in the test with HL-60(TB) leukemia, over 10 µM in the test on NCI-H460 lung, 3.34 µM in the test on RXF 393 renal and 7.99 µM in the test with DU-145 prostate. Further, the TGI in the test on MDA-MB-231 breast, with 786-0 renal, in the test on SK-MEL-2 melanoma, in the test with SNB-19 CNS, in the test with RPMI-8226 leukemia and with SK-MEL-28 melanoma was over 10 µM each time. The TGI in the test with HL-60(TB) leukemia, in the test with NCI-H460 lung, with RXF 393 renal and in the test on DU-145 prostate was over 10 µM throughout.

Turning to `CCCCCCC/C=C/[C@H]1O[C@]2(O)C(=O)C=C3C[C@@H](O[C@@H]4O[C@H](CO)[C@@H](O)C(O)[C@@H]4O)C[C@@H]3[C@H]2C=C1C` (stereo partly specified), the GI50 is 1.2 µM with MDA-MB-231 breast; 2.35 µM in the test on 786-0 renal; 3.46 µM in the test with SK-MEL-2 melanoma; 3.52 µM in the test with SNB-19 CNS; 0.711 µM with RPMI-8226 leukemia; 3.97 µM in the test with SK-MEL-28 melanoma. Moreover, the GI50 in the test with HL-60(TB) leukemia is 0.812 µM; in the test on NCI-H460 lung, 6.61 µM; in the test on RXF 393 renal, 0.82 µM; in the test on DU-145 prostate, 3.52 µM. Further, the TGI came to 5.53 µM in the test with MDA-MB-231 breast; 7.08 µM in the test on 786-0 renal; 9.34 µM with SK-MEL-2 melanoma; 8.04 µM in the test on SNB-19 CNS; 1.98 µM with RPMI-8226 leukemia; 8.62 µM with SK-MEL-28 melanoma. The TGI in the test on HL-60(TB) leukemia was 4.05 µM; in the test on NCI-H460 lung, 24.3 µM; with RXF 393 renal it was 2.62 µM; in the test on DU-145 prostate, 7.44 µM.

With `CC(C)=CCC1=C(OCC(=O)O)C(=O)c2ccccc2C1=O`, the TGI in the test on MDA-MB-231 breast was over 100 µM; in the test on 786-0 renal, over 100 µM; in the test with SK-MEL-2 melanoma, 84.2 µM; with SNB-19 CNS, 92.7 µM; in the test on RPMI-8226 leukemia, over 100 µM; in the test on SK-MEL-28 melanoma, over 100 µM. In addition, the TGI is 36.1 µM with HL-60(TB) leukemia, over 100 µM with NCI-H460 lung, 81.1 µM in the test with RXF 393 renal and over 100 µM with DU-145 prostate.

Regarding `C[N+](C)(CCCCCC[N+](C)(C)CCCN1C(=O)c2cc3ccccc3cc2C1=O)CCCN1C(=O)c2cc3ccccc3cc2C1=O`, the GI50 in the test with MDA-MB-231 breast, in the test on 786-0 renal, in the test on SK-MEL-2 melanoma, in the test on SNB-19 CNS, in the test on RPMI-8226 leukemia and in the test on SK-MEL-28 melanoma was over 37.5 µM throughout. In addition, the GI50 in the test with HL-60(TB) leukemia, with NCI-H460 lung, in the test on RXF 393 renal and in the test on DU-145 prostate was over 37.5 µM each time. In addition, the TGI in the test on MDA-MB-231 breast, with 786-0 renal, with SK-MEL-2 melanoma, in the test on SNB-19 CNS, with RPMI-8226 leukemia and in the test with SK-MEL-28 melanoma was over 37.5 µM in each case. The TGI with HL-60(TB) leukemia, with NCI-H460 lung, in the test with RXF 393 renal and with DU-145 prostate was over 37.5 µM throughout.
